{
  "source": "patent US5171851A",
  "about": "“Imidazole substituted benzoxazine or benzothiazine derivatives” (Dong-A Pharm. Co., Ltd., priority 1990, dated 1992)",
  "key": {"[1]": {"tested_on": "anesthetized cats", "assay": "cardiotonic effect on anesthetized cats", "assay_type": "in vivo, cat", "conditions": "Felis catus; for change in vivo at 0.01 mg/kg: 0.01 mg/Kg iv; for change in vivo at 0.03 mg/kg: 0.03 mg/Kg iv; for change in vivo at 0.1 mg/kg: 0.1 mg/Kg iv", "procedure,_shortened": "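Male cats (~3 kg) under pentobarbital (30 mg/kg i.p., then 4 mg/kg/hr i.v.), ventilated, open-chest. Compound given i.v. via femoral vein at 0.1 ml/kg in saline (DMSO or DMF if needed) after 30 min recovery; LV pressure, LVdP/dt, arterial pressure and heart rate recorded.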"}, "[2]": {"tested_on": "blood-perfused sino-atrial preparation", "assay": "sinus rate on blood-perfused sino-atrial preparation", "set-up": "species or system dog", "procedure,_shortened": "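Isolated right atrium from pentobarbital-anaesthetized, heparinized mongrel dogs, perfused through the SA-node artery with donor-dog carotid blood at a constant 100 mmHg, resting tension 2 g. Test compounds were injected into the perfusing blood near the catheter. Spontaneous sinus rate was expressed as percent of the pre-injection rate.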"}, "[3]": {"tested_on": "Spraque-Dawley rats", "assay": "acute toxicity test in Spraque-Dawley rats", "conditions": "rat, in vivo, po, 300 mg/kg", "experimental": "Acute toxicity test of 6-(4-methylimidazol-1-yl)-(4H)-3,1-benzoxazin-2-one was conducted in Spraque-Dawley rats. The test compound was suspended in 5% arabic gum and was administered orally to six rats at a dose of 300 mg/kg body weight. […] Accordingly, LD 50 of the compound is 300 mg/kg or more."}, "[4]": {"tested_on": "blood perfused papillary muscle preparation", "assay": "contractile power on blood perfused papillary muscle preparation", "set-up": "species or system dog", "conditions": "Canis lupus familiaris, read-out: change of contractivity (%)", "procedure,_shortened": "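Dog papillary muscle perfused via anterior septal artery with heparinised donor blood at about 100 mmHg, paced at 120/min, resting tension 2 g. Compound injected into perfusing blood at 10–30 ul; inotropic effect expressed as percent change in isometric developed tension versus pre-dose.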"}},
  "note": "Like-named read-outs stand apart in the source and are kept apart here.",
  "data": [
    {"smiles": "Cc1cn(-c2ccc3c(c2)COC(=O)N3)cn1", "note": "[6-(4-methylimidazol-1-yl)(4H)-3,1-benzoxazin-2-one]", "values": [
      {"measurement": "change in vivo at 0.01 mg/kg", "setting": "[1]; read-out: HR (%)", "value": 1.25, "unit": "%"},
      {"measurement": "change in vivo at 0.01 mg/kg", "setting": "[1]; read-out: LV dp/dt (%)", "value": 29.6, "unit": "%"},
      {"measurement": "change in vivo at 0.01 mg/kg", "setting": "[1]; read-out: LVP (%)", "value": 7.69, "unit": "%"},
      {"measurement": "change in vivo at 0.01 mg/kg", "setting": "[1]; read-out: SBP (%)", "value": -4.55, "unit": "%"},
      {"measurement": "change in vivo at 0.01 mg/kg", "setting": "[1]; read-out: dBP", "value": -7.14, "unit": "%"},
      {"measurement": "change in vivo at 0.01 mg/kg", "setting": "[1]; read-out: mBP (%)", "value": -6, "unit": "%"},
      {"measurement": "change in vivo at 0.03 mg/kg", "setting": "[1]; read-out: HR (%)", "value": 1.88, "unit": "%"},
      {"measurement": "change in vivo at 0.03 mg/kg", "setting": "[1]; read-out: LV dp/dt (%)", "value": 85.2, "unit": "%"},
      {"measurement": "change in vivo at 0.03 mg/kg", "setting": "[1]; read-out: LVP (%)", "value": 23.1, "unit": "%"},
      {"measurement": "change in vivo at 0.03 mg/kg", "setting": "[1]; read-out: SBP (%)", "value": -9.12, "unit": "%"},
      {"measurement": "change in vivo at 0.03 mg/kg", "setting": "[1]; read-out: dBP", "value": -10.7, "unit": "%"},
      {"measurement": "change in vivo at 0.03 mg/kg", "setting": "[1]; read-out: mBP (%)", "value": -10.2, "unit": "%"},
      {"measurement": "change in vivo at 0.1 mg/kg", "setting": "[1]; read-out: HR (%)", "value": 6.25, "unit": "%"},
      {"measurement": "change in vivo at 0.1 mg/kg", "setting": "[1]; read-out: LV dp/dt (%)", "value": 113, "unit": "%"},
      {"measurement": "change in vivo at 0.1 mg/kg", "setting": "[1]; read-out: LVP (%)", "value": 30.8, "unit": "%"},
      {"measurement": "change in vivo at 0.1 mg/kg", "setting": "[1]; read-out: SBP (%)", "value": -15.9, "unit": "%"},
      {"measurement": "change in vivo at 0.1 mg/kg", "setting": "[1]; read-out: dBP", "value": -14.3, "unit": "%"},
      {"measurement": "change in vivo at 0.1 mg/kg", "setting": "[1]; read-out: mBP (%)", "value": -15, "unit": "%"},
      {"measurement": "activation at 0.001 mg", "setting": "[2]; Canis lupus familiaris, dose 1.0 ug, read-out: change of sinus rate (%)", "value": 0, "unit": "%"},
      {"measurement": "activation at 0.003 mg", "setting": "[2]; Canis lupus familiaris, dose 3.0 ug, read-out: change of sinus rate (%)", "value": 2.52, "unit": "%"},
      {"measurement": "activation at 0.01 mg", "setting": "[2]; Canis lupus familiaris, dose 10.0 ug, read-out: change of sinus rate (%)", "value": 5.04, "unit": "%"},
      {"measurement": "change of sinus rate (%)", "setting": "[2]; at the ED 30 dose", "value": "+5.17%"},
      {"measurement": "dead animals", "setting": "[3]", "value": "no dead animal was found"},
      {"measurement": "activation at 0.001 mg", "setting": "[4]; dose 1.0 ug", "value": 2.94, "unit": "%"},
      {"measurement": "activation at 0.003 mg", "setting": "[4]; dose 3.0 ug", "value": 13, "unit": "%"},
      {"measurement": "activation at 0.01 mg", "setting": "[4]; dose 10.0 ug", "value": 30.4, "unit": "%"}
    ]}
  ]
}
